This experiment concerns the target T1, Recombinant human KIF18A (1-467 His-tagged) protein (Homo sapiens, UniProt Q8NI77).
T1 construct: Recombinant human KIF18A (1-467 His-tagged) protein; His; made in house
Nature of the experiment: KIF18A Enzyme Assay: microtubule-stimulated ATPase activity assay (ADP-Glo). The format is biochemical. The conditions noted are these: KIF18A protein 30 nM, 30 μg/mL pig microtubules, ATP at Km 75 μM, ADP-Glo luminescence, RT. The source says: KIF18A Enzyme Assay: Microtubule-stimulated ATPase activity assay is used to measure KIF18A enzyme activity after treatment with compound. Compounds were 2-fold serially diluted in DMSO (Sigma Inc) over 22-point concentration range. Recombinant human KIF18A (1-467 His-tagged) protein was expressed using a baculovirus system and purified by affinity chromatography by Amgen Inc. Concentrations of KIF18A protein, microtubules (MT), and ATP in the reaction were optimized for standardized homogenous enzyme assay using ADP-Glorm Kinase/ATPase Assay Kit (Promega Inc). The assay measures ADP formed from the ATPase reaction. […] Concentration-response curve-fitting and IC50 determination was performed using Genedata Screener Software (Standard 15.0.1, Genedata Inc) with a four-parameter logistic regression fit model.
Table A provides data for compounds exemplified in the present application and priority document thereof, as representative compounds of the present invention, as follows: chemical name (as named by either ACD software or ChemDraw (Professional 15.0)) and biological data (IC50 in μM). Ex. […] refers to Example No.
A general note: In ADP-Glo the light output rises with the ADP produced.

T1 sequence (Q8NI77 1-467): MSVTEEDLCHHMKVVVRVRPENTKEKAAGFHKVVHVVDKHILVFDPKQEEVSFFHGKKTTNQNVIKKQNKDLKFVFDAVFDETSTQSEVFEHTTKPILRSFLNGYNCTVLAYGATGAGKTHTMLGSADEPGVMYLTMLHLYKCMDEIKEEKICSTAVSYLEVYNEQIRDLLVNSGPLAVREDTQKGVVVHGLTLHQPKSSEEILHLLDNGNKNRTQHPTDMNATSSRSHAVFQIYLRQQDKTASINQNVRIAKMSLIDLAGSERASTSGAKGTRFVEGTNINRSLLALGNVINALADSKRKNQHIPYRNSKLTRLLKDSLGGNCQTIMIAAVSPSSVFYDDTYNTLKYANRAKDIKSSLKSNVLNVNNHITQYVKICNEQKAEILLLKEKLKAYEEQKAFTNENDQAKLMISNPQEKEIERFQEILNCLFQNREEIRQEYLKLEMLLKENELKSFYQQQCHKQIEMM
T1 sequence (P02550 whole entry partner): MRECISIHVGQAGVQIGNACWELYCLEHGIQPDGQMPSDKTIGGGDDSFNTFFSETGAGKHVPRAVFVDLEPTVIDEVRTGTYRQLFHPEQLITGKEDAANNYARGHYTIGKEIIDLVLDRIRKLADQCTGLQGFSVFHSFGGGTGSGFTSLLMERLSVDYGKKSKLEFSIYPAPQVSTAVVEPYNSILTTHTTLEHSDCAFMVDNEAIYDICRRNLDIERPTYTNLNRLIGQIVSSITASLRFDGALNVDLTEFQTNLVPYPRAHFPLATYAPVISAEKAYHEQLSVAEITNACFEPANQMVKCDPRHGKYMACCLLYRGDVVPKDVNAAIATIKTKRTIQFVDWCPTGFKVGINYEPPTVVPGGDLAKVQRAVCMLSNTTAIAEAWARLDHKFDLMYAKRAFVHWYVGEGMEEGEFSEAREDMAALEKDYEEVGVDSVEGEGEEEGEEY
T1 sequence (P02554 whole entry partner): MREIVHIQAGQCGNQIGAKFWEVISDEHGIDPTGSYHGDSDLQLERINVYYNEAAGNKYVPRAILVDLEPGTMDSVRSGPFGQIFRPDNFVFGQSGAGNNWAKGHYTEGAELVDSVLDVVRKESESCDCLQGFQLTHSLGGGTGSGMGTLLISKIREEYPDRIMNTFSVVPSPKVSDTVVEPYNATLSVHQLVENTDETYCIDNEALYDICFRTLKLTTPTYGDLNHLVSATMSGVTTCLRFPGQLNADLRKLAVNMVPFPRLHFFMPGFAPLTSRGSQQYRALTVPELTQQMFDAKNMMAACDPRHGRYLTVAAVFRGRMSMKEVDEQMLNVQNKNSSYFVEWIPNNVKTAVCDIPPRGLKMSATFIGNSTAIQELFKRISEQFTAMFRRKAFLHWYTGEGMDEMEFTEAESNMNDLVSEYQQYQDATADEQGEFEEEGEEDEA

As usually defined, the IC50 is the concentration needed to halve the response being measured. In the case of `CC(C)(C)NS(=O)(=O)c1cccc(NC(=O)c2ccc(N3CCCS3(=O)=O)cc2N2CCC3(CC2)CC3)c1` [Example 102-6, N-(3-(N-(tert-butyl)sulfamoyl)phenyl)-4-(1,1-dioxidoisothiazolidin-2-yl)-2-(6-azaspiro[2.5]octan-6-yl)benzamide], the IC50 was found to be 45 nM.
`C[C@@H]1CN(c2cccc(NC(=O)c3ccc(NS(=O)(=O)CCO)cc3N3CCC4(CC3)CC4)c2)CCO1` [Example 103-1, (R)-4-((2-hydroxyethyl)sulfonamido)-N-(3-(2-methylmorpholino)phenyl)-2-(6-azaspiro[2.5]octan-6-yl)benzamide]: the IC50 was 71 nM.
The result for `C[C@@H]1CN(c2cccc(NC(=O)c3ccc(NS(=O)(=O)CCO)cc3N3CCC4(CC3)CC4)c2F)CCO1` [Example 103-2, (R)-N-(2-fluoro-3-(2-methylmorpholino)phenyl)-4-((2-hydroxyethyl)sulfonamido)-2-(6-azaspiro[2.5]octan-6-yl)benzamide] reads 101 nM; that for `C[C@@H]1CN(c2cc(NC(=O)c3ccc(NS(=O)(=O)CCO)cc3N3CCC4(CC3)CC4)ccc2F)CCO1` [Example 103-4, (R)-N-(4-fluoro-3-(2-methylmorpholino)phenyl)-4-((2-hydroxyethyl)sulfonamido)-2-(6-azaspiro[2.5]octan-6-yl)benzamide], 177 nM; that for `Cc1cc(NC(=O)c2ccc(NS(=O)(=O)CCO)cc2N2CCC3(CC2)CC3)cc(N2CCC(F)(F)CC2)c1` [Example 104, N-(3-(4,4-difluoropiperidin-1-yl)-5-methylphenyl)-4-((2-hydroxyethyl)sulfonamido)-2-(6-azaspiro[2.5]octan-6-yl)benzamide], 34 nM.
As for `O=C(Nc1cccc(N2CCC(F)(F)CC2)c1)c1ccc(NS(=O)(=O)CCO)cc1N1CCC2(CC1)CC2` [Example 104-1, N-(3-(4,4-difluoropiperidin-1-yl)phenyl)-4-((2-hydroxyethyl)sulfonamido)-2-(6-azaspiro[2.5]octan-6-yl)benzamide], the IC50 came out at 12 nM.
The result for `O=C(Nc1cccc(N2CCC(F)(F)CC2)c1F)c1ccc(NS(=O)(=O)CCO)cc1N1CCC2(CC1)CC2` [Example 104-2, N-(3-(4,4-difluoropiperidin-1-yl)-2-fluorophenyl)-4-((2-hydroxyethyl)sulfonamido)-2-(6-azaspiro[2.5]octan-6-yl)benzamide] reads 29 nM.
As to `CC(C)(O)COc1cccc(NC(=O)c2ccc(NS(=O)(=O)CCO)cc2N2CCC3(CC2)CC3)c1` [Example 106, N-(3-(2-Hydroxy-2-methylpropoxy)phenyl)-4-((2-hydroxyethyl)sulfonamido)-2-(6-azaspiro[2.5]octan-6-yl)benzamide], the IC50 worked out at 78 nM.
On to `CC(C)(C)NS(=O)(=O)c1cccc(NC(=O)c2ccc(S(=O)(=O)N3CCC3)cc2N2CCC3(CC2)CC3)c1` [Example 107, 4-(Azetidin-1-ylsulfonyl)-N-(3-(N-(tert-butyl)sulfamoyl)phenyl)-2-(6-azaspiro[2.5]octan-6-yl)benzamide], for which the IC50 is 44 nM.
The result for `CC(C)(C)NS(=O)(=O)c1cccc(NC(=O)c2ccc(S(=O)(=O)NC(C)(C)CO)cc2N2CCC3(CC2)CC3)c1` [Example 107-1, N-(3-(N-(tert-butyl)sulfamoyl)phenyl)-4-(N-(1-hydroxy-2-methylpropan-2-yl)sulfamoyl)-2-(6-azaspiro[2.5]octan-6-yl)benzamide] reads 60 nM.
The result for `CC(C)(C)NS(=O)(=O)c1cccc(NC(=O)c2ccc(S(=O)(=O)NCCO)cc2N2CCC3(CC2)CC3)c1` [Example 107-2, N-(3-(N-(tert-butyl)sulfamoyl)phenyl)-4-(N-(2-hydroxyethyl)sulfamoyl)-2-(6-azaspiro[2.5]octan-6-yl)benzamide] reads 43 nM; that for `CN(C)S(=O)(=O)c1ccc(C(=O)Nc2cccc(S(=O)(=O)NC(C)(C)C)c2)c(N2CCC3(CC2)CC3)c1` [Example 107-3, N-(3-(N-(tert-butyl)sulfamoyl)phenyl)-4-(N,N-dimethylsulfamoyl)-2-(6-azaspiro[2.5]octan-6-yl)benzamide], 70 nM; that for `CNS(=O)(=O)c1ccc(C(=O)Nc2cccc(S(=O)(=O)NC(C)(C)C)c2)c(N2CCC3(CC2)CC3)c1` [Example 107-4, N-(3-(N-(tert-butyl)sulfamoyl)phenyl)-4-(N-methylsulfamoyl)-2-(6-azaspiro[2.5]octan-6-yl)benzamide], 29 nM.
The result for `CC(C)(C)NS(=O)(=O)c1cccc(NC(=O)c2ccc(S(=O)(=O)NC3COC3)cc2N2CCC3(CC2)CC3)c1` [Example 107-5, N-(3-(N-(tert-butyl)sulfamoyl)phenyl)-4-(N-(oxetan-3-yl)sulfamoyl)-2-(6-azaspiro[2.5]octan-6-yl)benzamide] reads 60 nM; that for `CC(C)(C)NS(=O)(=O)c1cccc(NC(=O)c2ccc(S(=O)(=O)NC3CC3)cc2N2CCC3(CC2)CC3)c1` [Example 107-6, N-(3-(N-(tert-butyl)sulfamoyl)phenyl)-4-(N-cyclopropylsulfamoyl)-2-(6-azaspiro[2.5]octan-6-yl)benzamide], 36 nM; that for `CC(C)(C)NS(=O)(=O)c1cccc(NC(=O)c2ccc(S(=O)(=O)NC3(C)CC3)cc2N2CCC3(CC2)CC3)c1` [Example 107-7, N-(3-(N-(tert-butyl)sulfamoyl)phenyl)-4-(N-(1-methylcyclopropyl)sulfamoyl)-2-(6-azaspiro[2.5]octan-6-yl)benzamide], 52 nM.
As for `CC(C)(C)NS(=O)(=O)c1cccc(NC(=O)c2ccc(S(N)(=O)=O)cc2N2CCC3(CC2)CC3)c1` [Example 107-8, N-(3-(N-(tert-butyl)sulfamoyl)phenyl)-2-(6-azaspiro[2.5]octan-6-yl)-4-sulfamoylbenzamide], the IC50 was 40 nM.
The result for `Cn1ccnc1-c1ccc(C(=O)Nc2cccc(S(=O)(=O)NC(C)(C)C)c2)c(N2CCC3(CC2)CC3)c1` [Example 109, N-(3-(N-(tert-butyl)sulfamoyl)phenyl)-4-(1-methyl-1H-imidazol-2-yl)-2-(6-azaspiro[2.5]octan-6-yl)benzamide] reads 124 nM.
`Cn1nccc1-c1ccc(C(=O)Nc2cccc(S(=O)(=O)NC(C)(C)C)c2)c(N2CCC3(CC2)CC3)c1` [Example 109-1, N-(3-(N-(tert-butyl)sulfamoyl)phenyl)-4-(1-methyl-1H-pyrazol-5-yl)-2-(6-azaspiro[2.5]octan-6-yl)benzamide]: the IC50 amounted to 601 nM.
The result for `Cn1cc(-c2ccc(C(=O)Nc3cccc(S(=O)(=O)NC(C)(C)C)c3)c(N3CCC4(CC3)CC4)c2)cn1` [Example 109-2, N-(3-(N-(tert-butyl)sulfamoyl)phenyl)-4-(1-methyl-1H-pyrazol-4-yl)-2-(6-azaspiro[2.5]octan-6-yl)benzamide] reads 1090 nM; that for `CC(C)(C)NS(=O)(=O)c1cccc(NC(=O)c2ccc(-c3ncco3)cc2N2CCC3(CC2)CC3)c1` [Example 109-3, N-(3-(N-(tert-butyl)sulfamoyl)phenyl)-4-(oxazol-2-yl)-2-(6-azaspiro[2.5]octan-6-yl)benzamide], 534 nM.
For the molecule `CC(C)(C)NS(=O)(=O)c1cccc(NC(=O)c2ccc(NC(C)(C)CO)cc2N2CCC3(CC2)CC3)c1` [Example 110, N-(3-(N-(tert-Butyl)sulfamoyl)phenyl)-4-((1-hydroxy-2-methylpropan-2-yl)amino)-2-(6-azaspiro[2.5]octan-6-yl)benzamide], the IC50 turned out to be 58 nM.
Turning to `CC(C)(C)NS(=O)(=O)c1cccc(NC(=O)c2ccc(NCCO)cc2N2CCC3(CC2)CC3)c1` [Example 110-1, N-(3-(N-(tert-butyl)sulfamoyl)phenyl)-4-((2-hydroxyethyl)amino)-2-(6-azaspiro[2.5]octan-6-yl)benzamide], the IC50 came out at 134 nM.
The result for `CC(C)(C)NS(=O)(=O)c1cccc(NC(=O)c2ccc(C(=O)NCCO)cc2N2CCC3(CC2)CC3)c1` [Example 111, N-(3-(N-(tert-Butyl)sulfamoyl)phenyl)-N^4-(2-hydroxyethyl)-2-(6-azaspiro[2.5]octan-6-yl)terephthalamide] reads 124 nM; that for `CNC(=O)c1ccc(C(=O)Nc2cccc(S(=O)(=O)NC(C)(C)C)c2)c(N2CCC3(CC2)CC3)c1` [Example 111-1, N^1-(3-(N-(tert-butyl)sulfamoyl)phenyl)-N^4-methyl-2-(6-azaspiro[2.5]octan-6-yl)terephthalamide], 132 nM.
`CN(CCO)C(=O)c1ccc(C(=O)Nc2cccc(S(=O)(=O)NC(C)(C)C)c2)c(N2CCC3(CC2)CC3)c1` [Example 111-2, N^1-(3-(N-(tert-butyl)sulfamoyl)phenyl)-N^4-(2-hydroxyethyl)-N^4-methyl-2-(6-azaspiro[2.5]octan-6-yl)terephthalamide]: the IC50 was 201 nM.
As to `CC(C)(C)NS(=O)(=O)c1cccc(NC(=O)c2ccc(C(=O)NC(C)(C)CO)cc2N2CCC3(CC2)CC3)c1` [Example 111-3, N^1-(3-(N-(tert-butyl)sulfamoyl)phenyl)-N^4-(1-hydroxy-2-methylpropan-2-yl)-2-(6-azaspiro[2.5]octan-6-yl)terephthalamide], the IC50 worked out at 272 nM.
The result for `O=C(NCCO)c1ccc(C(=O)Nc2cccc(S(=O)(=O)C3CCCC3)c2)c(N2CCC3(CC2)CC3)c1` [Example 111-4, N^1-(3-(cyclopentylsulfonyl)phenyl)-N^4-(2-hydroxyethyl)-2-(6-azaspiro[2.5]octan-6-yl)terephthalamide] reads 139 nM.

The record behind these values is patent US20220289724A1, “KIF18A INHIBITORS” (AMGEN INC., priority 2019, published 2022).
